Values joined by “and” are separate entries in the source; they are usually repeats but may differ in a detail not shown here. Equal values may be shown once. “Also recorded” adds a separate entry of the source.
Assays:
[1] = in vivo; cited from earlier work
[2] = human, in vivo
[3] = tested on: schizophrenia patients; settings: human, in vivo
[4] = human, in vivo; remark: listed apart in the source
[5] = human, in vivo; remark: listed apart in the source
[6] = set-up: species or system human; settings: in vivo
[7] = tested on: bipolar disorder patients; settings: in vivo; cited from earlier work

CCO [Ethanol]
effect on circulating proline [1]: increases circulating proline levels

CCCC(CCC)C(=O)O [VPA, 2-propylpentanoic acid]
fasting plasma proline, mean±SD [2]: 299.29±94.76 | β (95% CI), bivariate association of VPA treatment with total SANS score [3]: −0.578 (−7.157, 6.001) | β, SANS total score of Val/Val versus Val/Met and Met/Met patients [3]: −12.17 | fasting plasma proline versus patients who did not receive VPA [4]: significantly higher | L-serine level [5]: 117 µM | fasting glycine level [5]: 361 µM | patients showing improvement in negative symptoms after treatment onset [6]: 2 out of 9 and 5 out of 7 and two and five | effect on circulating proline [1]: upregulates circulating proline; also recorded: strong up-regulator of proline levels | blood level considered the lower end of the therapeutic range [7]: 50 µg/mL
